Where “and” joins values, the source holds several entries; their conditions need not be identical. Equal values may be shown once. Where a SMILES comes first, the peptide text is derived from it. Where no end group is shown, it is not given here.
How the values were obtained:
[1] = target: extrinsic activation complex (factor VIIa:tissue factor) (Homo sapiens, UniProt P08709+P13726); assay: Rate of Factor Xa formation by the extrinsic activation complex, kinetic chromogenic assay; format: biochemical; details: for Factor Xa Formation (% of Control Rate) Extrinsic: 1 mg/ml (0.29-1.1 mM) peptide, 30 min at 37 degrees preincubation
[2] = target: T1, intrinsic activation complex (factor IXa:factor VIIIa) (Homo sapiens, UniProt P00451+P00740); assay: Rate of Factor Xa formation by the intrinsic activation complex, kinetic chromogenic assay; format: biochemical; details: for Factor Xa Formation (% of Control Rate) Intrinsic: 1 mg/ml (0.29-1.1 mM) peptide, 30 min at 37 degrees preincubation
T1 construct: Factor IXa was produced from contact product (14) and isolated as previously described (12); made in house; host or cells: Factor IXa produced from isolated Factor IX with contact product; Factor VIII was a gift from Rorer Biotechnology, Inc

[3] = target: RVV-X (Daboia siamensis, UniProt Q4PRD1+Q4PRD2+Q7LZ61); assay: biochemical; design: species or system Russell's viper
[4] = target: T2, Factor Xa:Factor Va complex (Homo sapiens, UniProt P12259); assay: Rate of thrombin formation (prothrombin activation by Factor Xa), chromogenic assay; format: biochemical; details: for Thrombin Formation (% of Control Rate): 200 μM final concentration of peptide
T2 sequence (P12259 29-737 limits assumed): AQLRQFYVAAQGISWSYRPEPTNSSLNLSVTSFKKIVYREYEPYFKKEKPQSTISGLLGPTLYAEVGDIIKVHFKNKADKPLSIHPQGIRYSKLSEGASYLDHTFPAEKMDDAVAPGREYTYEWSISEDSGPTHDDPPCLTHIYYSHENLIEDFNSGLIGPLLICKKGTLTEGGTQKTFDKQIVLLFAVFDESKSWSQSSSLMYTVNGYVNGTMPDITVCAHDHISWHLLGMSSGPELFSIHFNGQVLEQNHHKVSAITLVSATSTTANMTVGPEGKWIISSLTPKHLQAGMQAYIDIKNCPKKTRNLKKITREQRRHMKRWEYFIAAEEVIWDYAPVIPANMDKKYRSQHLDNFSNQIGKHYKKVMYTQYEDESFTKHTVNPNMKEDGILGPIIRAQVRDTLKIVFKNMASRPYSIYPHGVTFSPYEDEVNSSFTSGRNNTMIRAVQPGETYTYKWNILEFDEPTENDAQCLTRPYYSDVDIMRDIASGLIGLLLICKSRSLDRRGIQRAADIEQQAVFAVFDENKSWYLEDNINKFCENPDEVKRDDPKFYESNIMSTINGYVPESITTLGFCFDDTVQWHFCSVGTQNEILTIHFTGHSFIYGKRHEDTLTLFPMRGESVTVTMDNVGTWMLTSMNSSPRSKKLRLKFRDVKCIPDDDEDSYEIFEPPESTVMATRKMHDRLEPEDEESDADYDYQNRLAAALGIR
T2 sequence (P12259 1574-2224 limits assumed): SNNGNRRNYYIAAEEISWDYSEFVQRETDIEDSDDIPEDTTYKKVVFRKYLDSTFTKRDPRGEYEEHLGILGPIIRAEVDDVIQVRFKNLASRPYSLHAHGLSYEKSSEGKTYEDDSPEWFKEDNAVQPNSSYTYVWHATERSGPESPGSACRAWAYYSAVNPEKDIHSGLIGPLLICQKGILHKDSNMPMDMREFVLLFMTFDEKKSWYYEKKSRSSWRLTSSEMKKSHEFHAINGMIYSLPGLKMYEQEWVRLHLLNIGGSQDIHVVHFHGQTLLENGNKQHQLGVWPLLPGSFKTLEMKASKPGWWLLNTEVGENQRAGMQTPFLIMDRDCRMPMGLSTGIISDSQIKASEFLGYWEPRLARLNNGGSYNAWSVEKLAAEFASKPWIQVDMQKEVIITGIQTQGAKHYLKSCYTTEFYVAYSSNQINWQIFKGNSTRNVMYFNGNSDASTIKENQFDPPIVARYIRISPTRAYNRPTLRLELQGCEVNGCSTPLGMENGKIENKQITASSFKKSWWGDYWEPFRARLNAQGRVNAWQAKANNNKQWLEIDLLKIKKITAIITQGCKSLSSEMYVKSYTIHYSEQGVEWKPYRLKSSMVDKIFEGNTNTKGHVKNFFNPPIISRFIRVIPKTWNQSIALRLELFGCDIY
Experimental: b. Rate of Thrombin Formation: The ability of the synthetic peptides to inhibit Factor Xa function was assessed by their capacity to impede the rate of thrombin formation using a purified system and employing a specific thrombin chromogenic substrate. To 10 ul of Factor V (1.5 nM) was added 10 ul of phospholipid vesicles (30 uM), 3.3 ul of CaCl2 (100 mM) and 57 ul of TBS-BSA or synthetic peptide. The mixture was incubated at 37 degrees Centigrade for 15 minutes, after which 20 ul of Factor Xa (12 pM) and prothrombin (0.35 uM) were added to initiate the reaction.
At defined time intervals from initiation of either reaction (a) or (b), 20 ul aliquots were removed and added to a microtiter plate containing 80 ul of 50 mM Tris-HCl, 225 mM NaCl, 10 mM EDTA, pH 8.2. […] The rate of Factor Xa or thrombin formation was calculated from the slope of linear regressions of data plotted as a function of the initial rate of hydrolysis (OD 405/min) versus time and expressed as OD 405/min/min.
Factor Xa associates with activated Factor Va on a phospholipid surface in the presence of calcium. A chromogenic assay was used to investigate the ability of the panel of synthetic peptides to inhibit the activation of prothrombin by Factor Xa. In preliminary experiments it was determined that similar results were obtained whether prothrombin was added before or after factor Xa and that the 15 minute incubation period was sufficient for the peptide-protein interactions to reach equilibrium. […] Seven peptides prevented thrombin formation by greater than 40% when compared to reactions containing buffer only. These peptides represented the amino acid sequences 211-222, 237-262, 254-269, 267-283, 284-303, 363-375, 417-431. Thus, a limited number of synthetic peptides representing the primary structure of Factor Xa could inhibit this reaction and these were analyzed further.

[5] = test system: Factor X coagulant activity, RVV-X pathway; assay: Two-stage clotting assay, RVV-X mediated activation of Factor X; design: species or system human
[6] = test system: Factor X coagulant activity, extrinsic pathway; assay: Two-stage clotting assay, extrinsic activation of Factor X
Experimental: (§1) Coagulation Assays: The effect of the synthetic peptide and antibodies to them on Factor X coagulation activity was determined using two-stage clotting assays specific for Factor X activation by the intrinsic, extrinsic, and RVV-X activation enzyme complexes.
(§2) For determination of extrinsic activation of Factor X, 50 ul of bovine Factor VII/X deficient plasma was added 50 ul each of 1.5 nM Factor VII/VIIa, 1% tissue factor, 25 mM CaCl2, and peptide in TBS-BSA. Following incubation for 30 min at 37 degrees Centigrade, coagulation was initiated by the addition of 50 ul of 200 nM of Factor X, and the time for clot formation was measured. […] Factor X (50 ul of 105 nM) was added to initiate the reaction and the time for clot formation measured. […] Factor X and Xa activity was measured by the addition of 50 ul of 25 nM Factor X and the time for clot formation determined. […]
(§3) Analogous determinations of the CI50 values were measured in each of the specific coagulation assays outlined above. Factor X/Xa activity in the presence of varying concentrations of peptide was measured by comparing the clotting times to a standard curve constructed from the log of the clot time versus the log of Factor X concentration in the same incubation mixtures lacking peptides. […]

[7] = test system: Factor X coagulant activity, intrinsic pathway; assay: Two-stage clotting assay, intrinsic activation of Factor X
Experimental: as §1, §2, §3

[8] = 267-283 at 6 uM, 284-303 at 60 uM, 417-431 at 600 uM, alone or mixed

Chain of extrinsic activation complex (factor VIIa:tissue factor) (P08709 61-212 limits assumed): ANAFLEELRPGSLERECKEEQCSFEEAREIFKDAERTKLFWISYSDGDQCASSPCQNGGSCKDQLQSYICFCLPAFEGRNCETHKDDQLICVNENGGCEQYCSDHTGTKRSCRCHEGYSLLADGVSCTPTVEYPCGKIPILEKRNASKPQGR
Chain of extrinsic activation complex (factor VIIa:tissue factor) (P08709 213-466 limits assumed): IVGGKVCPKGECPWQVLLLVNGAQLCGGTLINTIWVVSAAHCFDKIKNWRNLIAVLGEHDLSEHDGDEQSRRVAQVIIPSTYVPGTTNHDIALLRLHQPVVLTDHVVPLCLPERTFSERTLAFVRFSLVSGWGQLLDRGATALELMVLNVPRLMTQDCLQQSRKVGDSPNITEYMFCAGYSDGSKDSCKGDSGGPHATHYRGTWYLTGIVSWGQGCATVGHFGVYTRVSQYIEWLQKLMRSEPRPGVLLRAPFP
Chain of extrinsic activation complex (factor VIIa:tissue factor) (P13726 33-295): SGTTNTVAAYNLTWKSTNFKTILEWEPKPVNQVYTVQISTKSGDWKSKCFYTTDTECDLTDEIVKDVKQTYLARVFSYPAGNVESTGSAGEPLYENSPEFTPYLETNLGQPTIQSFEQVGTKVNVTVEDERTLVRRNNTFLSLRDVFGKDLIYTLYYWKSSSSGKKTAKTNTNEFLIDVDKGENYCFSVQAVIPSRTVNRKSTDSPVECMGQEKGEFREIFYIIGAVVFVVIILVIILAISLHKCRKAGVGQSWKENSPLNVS
T1 sequence (P00740 47-191 limits assumed): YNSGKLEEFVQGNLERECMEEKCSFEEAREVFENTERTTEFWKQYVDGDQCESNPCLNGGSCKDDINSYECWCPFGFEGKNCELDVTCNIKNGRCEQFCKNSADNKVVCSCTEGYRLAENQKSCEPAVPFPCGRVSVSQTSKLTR
T1 sequence (P00740 227-461 limits assumed): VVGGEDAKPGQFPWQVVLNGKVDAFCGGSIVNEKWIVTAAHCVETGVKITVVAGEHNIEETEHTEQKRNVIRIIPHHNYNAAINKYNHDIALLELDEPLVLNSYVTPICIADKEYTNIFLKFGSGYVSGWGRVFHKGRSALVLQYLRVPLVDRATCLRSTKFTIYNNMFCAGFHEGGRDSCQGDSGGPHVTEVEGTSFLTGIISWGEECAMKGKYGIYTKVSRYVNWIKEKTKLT
T1 sequence (P00451 20-391 limits assumed): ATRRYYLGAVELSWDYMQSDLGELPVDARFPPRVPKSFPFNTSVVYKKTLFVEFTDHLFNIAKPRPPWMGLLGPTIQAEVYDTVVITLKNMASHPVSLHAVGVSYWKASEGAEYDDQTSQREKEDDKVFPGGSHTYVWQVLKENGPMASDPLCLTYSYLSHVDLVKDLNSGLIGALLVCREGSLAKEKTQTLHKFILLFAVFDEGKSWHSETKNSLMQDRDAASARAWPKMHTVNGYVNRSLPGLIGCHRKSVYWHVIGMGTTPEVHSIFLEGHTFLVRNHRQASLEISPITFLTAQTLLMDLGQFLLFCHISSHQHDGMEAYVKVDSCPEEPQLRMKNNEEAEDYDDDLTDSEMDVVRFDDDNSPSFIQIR
T1 sequence (P00451 392-759 limits assumed): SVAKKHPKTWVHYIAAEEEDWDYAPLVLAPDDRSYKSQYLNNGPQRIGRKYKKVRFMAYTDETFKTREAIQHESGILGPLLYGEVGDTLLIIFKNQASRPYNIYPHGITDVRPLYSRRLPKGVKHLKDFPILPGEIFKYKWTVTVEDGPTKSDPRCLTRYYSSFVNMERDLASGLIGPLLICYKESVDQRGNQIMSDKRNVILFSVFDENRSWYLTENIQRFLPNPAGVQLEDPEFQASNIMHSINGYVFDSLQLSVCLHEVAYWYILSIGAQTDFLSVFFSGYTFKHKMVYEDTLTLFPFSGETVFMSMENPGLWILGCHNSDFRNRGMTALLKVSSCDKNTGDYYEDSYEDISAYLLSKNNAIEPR
T1 sequence (P00451 1709-2351 limits assumed): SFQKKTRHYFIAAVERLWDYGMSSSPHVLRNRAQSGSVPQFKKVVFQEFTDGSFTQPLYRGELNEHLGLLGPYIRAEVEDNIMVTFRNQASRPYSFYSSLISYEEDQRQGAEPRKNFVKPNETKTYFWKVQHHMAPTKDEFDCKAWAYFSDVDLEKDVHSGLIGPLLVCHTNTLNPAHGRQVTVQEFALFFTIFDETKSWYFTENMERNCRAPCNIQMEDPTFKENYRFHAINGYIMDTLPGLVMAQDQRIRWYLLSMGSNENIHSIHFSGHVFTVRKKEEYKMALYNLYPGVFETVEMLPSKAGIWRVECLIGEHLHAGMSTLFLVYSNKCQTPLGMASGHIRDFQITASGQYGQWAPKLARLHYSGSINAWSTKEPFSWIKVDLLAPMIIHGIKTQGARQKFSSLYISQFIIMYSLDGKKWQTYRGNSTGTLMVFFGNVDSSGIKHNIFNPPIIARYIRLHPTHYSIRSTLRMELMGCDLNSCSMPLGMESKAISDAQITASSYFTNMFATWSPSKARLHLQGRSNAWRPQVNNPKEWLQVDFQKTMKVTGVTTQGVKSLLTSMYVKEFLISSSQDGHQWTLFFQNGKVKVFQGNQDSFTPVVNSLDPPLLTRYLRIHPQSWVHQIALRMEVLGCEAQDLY

AVLRLKTPITFRMNVAPACL [Peptide 284-303]
Factor Xa Formation (% of Control Rate) Extrinsic [1]: 19 % of Control Rate | Factor X Activation (% Control) Experiment #1 Observed [1, 8]: 35.0 % Control | Factor X Activation (% Control) Experiment #2 Observed [1, 8]: 47.8 % Control | Ki ([1]; Dixon plots, mean ± SD for 4 to 5 determinations, read-out: Ki for Factor X Activation, Extrinsic): 73.6 ± 7.79 µM | IC50 ([1]; chromogenic assay, read-out: Concentration for 50% Inhibition, Rate of Factor Xa Formation, Extrinsic): 78 µM | Factor Xa Formation (% of Control Rate) Intrinsic [2]: 0 % of Control Rate | Ki ([2]; Dixon plots, mean ± SD for 4 to 5 determinations, read-out: Ki for Factor X Activation, Intrinsic): 3.05 ± 1.77 µM | IC50 ([2]; chromogenic assay, read-out: Concentration for 50% Inhibition, Rate of Factor Xa Formation, Intrinsic): 1.7 µM and < 5 µM | Factor Xa Formation (% of Control Rate) RVVX [3]: 34 | IC50 ([3]; read-out: Concentration for 50% Inhibition, Rate of Factor Xa Formation, RVV.X): 104 µM | Ki ([3]; read-out: Ki for Factor X Activation, RVV-X): 123 ± 23.9 µM | Thrombin Formation (% of Control Rate) [4]: 0 % of Control Rate | prevention of thrombin formation compared to buffer only ([4]; 200 uM of each peptide): greater than 40% | Ki ([4]; assays varying the substrate prothrombin, read-out: Ki for Factor Xa Function): 16.2 ± 4.54 µM | inhibition of RVV-X pathway Factor X coagulant activity ([5]; clot formation assay): inhibited | IC50 ([5]; clotting assay, read-out: Concentration for 50% Inhibition, Coagulant Activity, RVV.X): 14 µM | inhibition of extrinsic pathway-mediated Factor X coagulant activity ([6]; clot formation assay): less potent inhibitor | IC50 ([6]; read-out: Concentration for 50% Inhibition, Coagulant Activity, Extrinsic, clotting assay): > 500 µM | inhibition of intrinsic pathway Factor X coagulant activity ([7]; clot formation assay): inhibited | IC50 ([7]; read-out: Concentration for 50% Inhibition, Coagulant Activity, Intrinsic, clotting assay): 46 µM

VVIKHNRFTKETYDFDI [Peptide 267-283]
inhibition at 400 µM ([1]; 400 uM peptide, Factor X 5.25-84 nM (FIG. 1), read-out: inhibition of the rate and extent of Factor X activation by the extrinsic activation complex): ≥ 90%

LYQAKRF *EGDRNTEQEEGG(K) [Peptide 238-259 + K]
Factor Xa Formation (% of Control Rate) Extrinsic [1]: 100 % of Control Rate | Factor Xa Formation (% of Control Rate) Intrinsic [2]: 71 % of Control Rate | Factor Xa Formation (% of Control Rate) RVVX [3]: 100 | Thrombin Formation (% of Control Rate) [4]: 98 % of Control Rate

IVGGQECKDGECPWQA(K) (C-terminal added Lys) [Peptide 195-210 + K]
Factor Xa Formation (% of Control Rate) Extrinsic [1]: 88 % of Control Rate | Factor Xa Formation (% of Control Rate) Intrinsic [2]: 98 % of Control Rate | Factor Xa Formation (% of Control Rate) RVVX [3]: 76 | Thrombin Formation (% of Control Rate) [4]: 99 % of Control Rate

TEQE*GGEAVHEVEVVIK [Peptide 253-270]
inhibition of the rate and extent of Factor X activation by the extrinsic activation complex ([1]; 400 uM peptide, Factor X 5.25-84 nM (FIG. 1)): approximately 20% | Factor Xa Formation (% of Control Rate) Extrinsic [1]: 100 % of Control Rate | Factor Xa Formation (% of Control Rate) RVVX [3]: 71

C[C@H](NC(=O)[C@H](CC(=O)O)NC(=O)[C@H](CCC(=O)O)NC(=O)[C@H](CCC(N)=O)NC(=O)[C@H](CCCCN)NC(=O)[C@@H](NC(=O)[C@H](CC(=O)O)NC(=O)[C@H](Cc1ccc(O)cc1)NC(=O)CNC(=O)[C@H](C)NC(=O)[C@H](CS)NC(=O)[C@@H](N)Cc1ccccc1)[C@@H](C)O)C(=O)N[C@@H](CS)C(=O)O [Peptide 363-375] (H-FCAGYDTKQEDAC-OH; N-terminus and C-terminus assumed)
mode of inhibition of prothrombin activation ([4]; Dixon plots, varying prothrombin): noncompetitive

CARGYTLADNGKAC [Peptide 111-124]
Factor Xa Formation (% of Control Rate) Extrinsic [1]: 83 % of Control Rate | Factor Xa Formation (% of Control Rate) Intrinsic [2]: 121 % of Control Rate | Factor Xa Formation (% of Control Rate) RVVX [3]: 77 | Thrombin Formation (% of Control Rate) [4]: 100 % of Control Rate
